Experimental findings from patent US20210267981A1, “COMPOUNDS FOR THE TREATMENT OF HIV INFECTION AND OTHER DISEASES CAUSED BY RNA VIRUSES” (UNIVERSIDAD CATOLICA DE VALENCIA "SAN VICENTE MARTIR", priority 2018, published 2021) are described below.

Data set [1] deals with IIB-Rev34-50 interaction (subdomain IIB of RRE and FITC-labeled Rev34-50 peptide). The data set can be described thus: Fluorescence anisotropy (FA) inhibition of IIBh-Rev34-50 interaction. Type of data set: binding, HIV-1. As to the method:
Fluorescence Anisotropy (FA).
These experiments were performed and analyzed as described in the state of the art (Prado et al., Biochem Pharmacol 107 (2016) 14-28; Gonzalez-Bulnes et al., Angewandte Chemie-International Edition 52(50) (2013) 13405-13409; Luedtke et al., Biopolymers 70(1) (2003) 103-19), using 96-well plates and Victor X3 or Victor X5 plate readers (Perkin Elmer, Waltham USA). The assays used 10 nM of frevp and 60 nM of IIBh, and included one positive control (a mixture of IIBh and frevp) and two negative controls (frevp and a mixture of IIBh, frevp, and neomycin B). IIBh-frevp inhibition was only considered to exist when anisotropy reached the expected minimum value at the highest inhibitor concentrations. To ensure that there would not be spectral superposition with FITC, anisotropy data was also collected for each of the compounds. None of them emitted fluorescence under the assay conditions. These experiments were repeated three times for each compound.
(§1) The capacity of the compounds to inhibit IIB-Rev34-50 interaction was evaluated by means of an assay based on the detection, by means of fluorescence anisotropy (FA), of the shift of an FITC-labeled Rev34-50 peptide from its binding site in subdomain IIB of RRE. The capacity of the compounds to inhibit the formation of the RRE-Rev complex was evaluated by means of an electrophoretic mobility shift assay (EMSA).
(In general: Fluorescence polarisation rises when a labelled molecule tumbles more slowly, as on binding a larger partner.)

Data set [2] concerns MT-2 cells. The data set can be described thus: Cell toxicity, CellTiter-Glo assay. Type of data set: cell-based. The following applies: CC50 versus antiviral concentration of the infection experiments. An excerpt: (§2) Anti-HIV-1 Activity and Cell Toxicity.
(§3) The methodology used for performing and analyzing these experiments has been described previously (Prado et al., Biochem Pharmacol 107 (2016) 14-28; Gonzalez-Bulnes et al., Angewandte Chemie-International Edition 52(50) (2013) 13405-13409). Briefly, infectious supernatants were obtained from 293T cells transfected with the pNL4.3-Ren plasmid. MT-2 cells were infected with these supernatants in the presence of the compounds, and the anti-HIV activity was quantified 48 h after infection by determining luciferase activity in the cell lysates. Cell viability was evaluated in cells treated with the same compound concentrations using the CellTiter-Glo assay (Promega). The antiviral activity and cell toxicity results represent the average of at least three independent experiments.
For orientation: In ATP-based viability assays light output follows the ATP content of the culture.

The nature of data set [3]: Cell toxicity, CellTiter-Glo assay. It counts as cell-based. The settings on record: human; MT-2 cells, CellTiter-Glo; read-out: CC50.
Description: as §2, §3

Data set [4] relates to IIBh RNA. The data set can be described thus: NMR spectroscopy of compound binding to IIBh RNA. More on the design: species or system HIV-1. The settings on record: increasing ligand:RNA molar ratios. How it is done: The NMR spectra were acquired in a 500 MHz Bruker Avance spectrometer and analyzed with Topspin 3.5 (Bruker Biospin, Billerica, USA). The interaction between the tested compounds and IIBh RNA samples dissolved at a concentration of 40-60 μM were monitored as described previously in the state of the art (Prado et al., Biochem Pharmacol 107 (2016) 14-28; Gonzalez-Bulnes et al., Angewandte Chemie-International Edition 52(50) (2013) 13405-13409), using one-dimensional and two-dimensional experiments (TOCSY) at increasing ligand:RNA molar ratios.
NMR spectroscopy is then used for identifying the binding sites in the IIBh fork of the compounds. […] This compound altered the signals of residues C9, A19, C20, and U23 comprising the Rev binding site, but also disrupted the signals of the double-helix stems flanking the loop. 2a and 2b required a higher drug:RNA molar ratio to induce changes in the signals of IIBh RNA.

In data set [5] the test system is HIV-1. The data set can be described thus: Anti-HIV-1 activity, cell infection assay in MT-2 cells (pNL4.3-Ren supernatants). Type of data set: cell-based. As to the method: Plasmids, Virus, and Cells for Ex Vivo Assays.
Vectors pNL4.3-Luc and pNL4.3-Ren were generated by cloning luciferase and Renilla genes, respectively, in the nef site of HIV-1 proviral plasmid pNL4.3 (Adachi et al., J Virol 59(2) (1986) 284-91), as described previously in the state of the art (Garcia-Perez et al., J Med Virol 79(2) (2007) 127-37). MT-2 cells (Harada et al., Science 229(4713) (1985) 563-6) and 293T cells (American Type Culture Collection, Rockville, USA) were cultured as described previously (Prado et al., Biochem Pharmacol 107 (2016) 14-28).
as §2, §3

Data set [6] concerns complete HIV-1 (NL4.3-luc). In words: Cell transfection assay, full-length HIV-1 luciferase plasmid (NL4.3-luc) in MT-2 cells. Type of data set: cell-based. As to the method:
Cell Transfection Assays.
MT-2 cells were transfected with plasmids containing a luciferase reporter gene the expression of which was under the control of the complete HIV-1 (NL4.3-luc) or HIV-1 LTR promoter (LTR-Luc). After transfection, the cells were treated with different compound concentrations, and the luciferase activity in the cell lysates was quantified 48 h later (Prado et al., Biochem Pharmacol 107 (2016) 14-28; Gonzalez-Bulnes et al., Angewandte Chemie-International Edition 52(50) (2013) 13405-13409).
In order to identify the target or the set of targets of the tested compounds, an assay based on the transfection of a full-length HIV-1 vector is performed. In this experiment, the entry, reverse transcription, and DNA integration phases of the viral cycle are sidestepped, such that only transcriptional or post-transcriptional events which can be blocked by the inhibitor under study are produced.

Data set [7] has as its system subdomain IIB of the RRE (IIBh-19ap RNA). In words: Fluorescence intensity binding to IIBh RNA, with or without competing RNAtCys or LTRd DNA. Also on record: species or system HIV-1. The following applies: for pKd: IIBh-19ap. How it is done: Depending on the absorption spectra of the compounds, these experiments measured association with IIBh-19ap or IIBh-23fl RNA sequences labeled with 2-aminopurine and fluorescein in residues A19 and U23 of the IIB loop, respectively (Prado et al., Biochem Pharmacol 107 (2016) 14-28), and were carried out in a SPECTRA GEMINI XPS plate reader (Molecular Devices, Sunnyvale, USA) or a Victor X5 plate reader (Perkin Elmer). The IIB RNA concentration in these assays was 100 nM, and the specificity of the interactions with respect to RNA and DNA was evaluated by duplicating the experiments in the presence of a 100-fold molar excess (10 μM) of RNAtCys or LTRd DNA duplex. All the fluorescence intensity experiments were performed at least three times for each compound.
The specificity of the interaction was evaluated by duplicating the experiments in the presence of a 100-fold molar excess of RNAtCys. Likewise, specificity with respect to a double-stranded DNA was evaluated by further performing the experiments with a 100-fold molar excess of a DNA duplex with 26 base pairs (identified as LTRd) containing NF-κB and Sp-1 transcription factor-binding sites (Prado et al., Biochem Pharmacol 107 (2016) 14-28). These two factors bind to the LTR promoter of HIV-1 DNA and are essential for virus replication (Jones et al., AnnuRevBiochem 63 (1994) 717-43).

In data set [8] the test system is complete RRE-Rev complex. The data set can be described thus: Electrophoretic mobility shift assay (EMSA) of complete RRE-Rev complex formation. Type of data set: binding, HIV-1. The following applies: 78 nM RRE and 1.32 μM Rev, two independent experiments. As to the method: Electrophoretic Mobility Shift Assays (EMSA).
These experiments used 78 nM of complete RRE, 1.32 μM of complete Rev, and increasing concentrations of each compound, and were carried out and analyzed as described previously in the state of the art (Prado et al., Biochem Pharmacol 107 (2016) 14-28; Fang et al., Cell 155(3) (2013) 594-605). The IC50 values were determined by measuring the area and the intensity of the band corresponding to free RRE. These experiments were performed at least three times for each compound.
as §1
On the technique in general: A gel shift assay detects complexes by their altered migration in electrophoresis.

pEC50, pIC50, pKd: −log10 of the molar value. Where two headings read alike, the source gives them in different places.

One may read the pIC50 as the negative decadic logarithm of the IC50, by convention in mol/L. A word on the CC50: it is the concentration giving 50% cytotoxicity. Usually pEC50 stands for −log10 of the EC50, conventionally taken in molar units. As a reminder, the pKd is the negative decadic logarithm of the Kd, by convention in mol/L.

For the compound `N=c1c(S(=O)(=O)c2ccc(Cl)cc2)cc2c(=O)n3ccccc3nc2n1C1CCCCC1` [Compound 2b], the pIC50 in data set [1] (60 nM IIBh and 10 nM frevp, three independent experiments, read-out: IC50 IIB-Rev34-50) is 4.99; in data set [1] (range given for FA and EMSA together for 2a and 2b, read-out: IC50 (FA, IIB-Rev34-50 interaction)), 4.86 to 4.99; in data set [8] it was 4.86. Also, the “CC50 values fold greater than the antiviral concentrations” value in data set [2] is above 10 fold. Besides, the 50% cytotoxic concentration (CC50) in data set [3] was above 100 µM. Also, in data set [4], the “changes of IIBh RNA NMR signals” value is on record as “only induced the widening of signals of residue U23 of the loop at a high drug:RNA molar ratio”. Moreover, the pEC50 in data set [5] (Human immunodeficiency virus 1, MT2, 48 h, read-out: EC50 of infection, HIV) was 4.99; in data set [5] (Human immunodeficiency virus 1, MT2, read-out: EC50 cell infection assay) it was 4.99; in data set [6] (Human immunodeficiency virus 1, MT2, 48 h, read-out: EC50 of transfection, HIV), below 4.00. Further, the “activity in the transfection assay” value in data set [6] (at concentrations lower than 100 μM) was “inactive”. Further, in data set [7] (100-fold molar excess of RNAtCys or LTRd), the “specificity of the interaction with IIB” value is given as “specific”. For the same compound, the pKd in data set [7] (100-fold molar excess of LTRd DNA duplex, read-out: Kd(IIBh + LTRd)) is 4.99; in data set [7] (100-fold molar excess of RNAtCys, read-out: Kd(IIBh + tRNA)), 4.94; in data set [7] (no competitor, read-out: Kd(IIBh)) it was 4.92. Moreover, in data set [7] (Kd(IIBh)/Kd(IIBh + LTRd) quotient), the “specificity IIB/DNA” value is recorded as 1.19. Further, the “specificity IIB/RNA” value in data set [7] (Kd(IIBh)/Kd(IIBh + tRNA) quotient) was 1.06.
